Laboratory results reported in patent US8415156B2, “Recombinant laminin-521” (Biolamina AB, priority 2010, dated 2013).

Key:
[1] = tested on: Oct4, Nanog, SSEA4; PAX6, SOX17, SOX7; experiment: Expression of pluripotency and differentiation markers (Example 2); format: cell-based, human; details: compared with Matrigel passed as small clumps
Method: For immunofluorescence studies, ES cells were cultured and fixed in 8-well slide chambers (BD Biosciences) or 96-well plate wells by 4% paraformaldehyde, permeabilized by 0.1% Triton-X and blocked by 10% bovine fetal serum (GIBCO Invitrogen Corporation) in phosphate-saline buffer (PBS) containing 0.1% Tween-20 (Sigma-Aldrich, St. Louis, www.sigmaaldrich.com) for one hour. Incubation with primary antibody was performed for 1.5 hours at room temperature. Incubation with secondary antibody and 4,6-diamidino-2-phenylindole (DAPI, Molecular Probes) was performed for 40 minutes. Between incubations, the specimens were washed with 0.1% Tween-20 in PBS buffer three to five times. Specimens were preserved in a fluorescence mounting medium (Dako, Glostrup, Denmark, http://www.dako.com), and observed under a fluorescence microscope (Leica, Heerbrugg, Switzerland, http://www.leica.com).
Total RNA was isolated using Absolutely RNA Microprep Kit (Stratagene, La Jolla Calif., www.stratagene.com) according to the manufacturer's instructions. cDNA was synthesized using 0.2 μg of total RNA in 20 μl reaction mixture, containing oligo(dT)12-18 primers and Superscript II reverse transcriptase (GIBCO Invitrogen Corporation), according to the manufacturer's instructions. […] All data was analyzed with 7300 System SDS Software v 1.4. […]

hES cells = experiment: Cell survival assay, 24 hours (Example 2); format: cell-based, human
Method: Tissue cell culture plates were coated overnight at 4° C. with sterile solutions of the ECM proteins, such as human recombinant LN-521, all at a concentration of 30 μg/ml (5 μg/cm^2). Control plates were coated with Matrigel according to the STEMCELL Technologies' instructions. Prior to use, dishes were pre-warmed in an incubator for one hour after which prewarmed O3 medium was added without additional washing of the dish. After applying a fresh LN-521 solution to a new dish, the remaining LN-521 solution could be used at least once more. All the adhesion, survival, and inhibition of survival experiments were carried out using fresh coating materials.
Briefly, 96-well plates were coated by extracellular matrix proteins as described above and blocked by O3 medium containing bovine serum albumin. The ES cells were plated at cell density of 50,000 cells/cm^2 onto extracellular matrix-coated plates and left to adhere for 1 hour in a cell incubator. After that the plates were washed 3 times with the medium to remove the non-adherent cells, and then the adherent cells were fixed for 20 minutes by 5% glutaraldehyde, stained by 0.1% Crystal Violet. (Kebo Lab, Spanga, Sweden, www.kebolab.se). After one hour and 3 washes with water, Crystal Violet was extracted with 10% acetic acid and quantified by measuring optical density at 570 nm. All the experiments were performed in quadruplicate.
The survival assay was performed as described for the cell adhesion assay above, except that the cells were left in the cell incubator for 24 hours. For inhibition of survival assay, the cells were kept in a medium with function blocking antibodies at the concentrations recommended by the manufacturer or pathway inhibitors at concentrations indicated in the text for 30 minutes, and then plated on the coated dishes. All the experiments were performed in quadruplicate.
Pluripotent hES cells express α1, α5, β1, β2 and γ1 laminin chains. To compare the adhesion and clonal survival of hES cells plated from single cell suspension to different coating substrata, hES cells growing as monolayers on LN-511 or as clusters on a feeder layer were trypsinized into single cell suspension in O3 medium and plated on cell culture dishes coated with Matrigel, LN-111, LN-511, LN-521 or a mixture of LN-511 and LN-521, in the absence or presence of a ROCK inhibitor (Y-27632) and analyzed after 24 hours.

With “LN-521: protein formed by joining α5, β2 and γ1 chains together; human recombinant, produced in HEK293 cells” as the substance, how does the “expression levels of pluripotency markers Oct4, Nanog, and SSEA4” value [1] read?
Its value is “stable expression levels”.

What about the “survival of Y-27632 treated human ES cells on LN-521 compared with Matrigel” value (hES cells; 10 μM of Y-27632, 40,000 cells per 1 cm^2) of the same substance?
Its value is “survived better”.

And the “survival on LN-521 compared with LN-511” value (hES cells; 24 hours, absence of ROCK inhibitor)?
The value was “significantly higher”.

And the “cell shape of cells growing on LN-521 24 hours after plating” value (hES cells; LN-521 row: absence of ROCK inhibitor, Y-27632 row: presence of ROCK inhibitor)?
Its value is “round”.

What about the “survival relative to Matrigel, exogenous bFGF removed” value (hES cells; O3 medium without exogenous bFGF) of the same substance?
Its value is 20 times.

What about the “survival of hES cells plated from single cell suspension after 24 hours” value (hES cells; O3 medium, absence of ROCK inhibitor) of the same substance?
Its value is “did so as single cells”.

What about the “survival 24 hours after plating in medium lacking all growth factors of the TeSR1 formulation” value (hES cells; no bFGF, LiCl, GABA, pipecolic acid and TGFβ) of the same substance?
Its value is “survived”.
